Test results reported in patent US12594293B2, “Use of 6-thio-dG to treat therapy-resistant telomerasepositive pediatric brain tumors” (The Board of Regents of The University of Texas System, priority 2018, dated 2026).

Assays:
Assay in all cases: Apoptosis, cleaved caspase-3 (IF / immunoblot)
Type in all cases: cell-based, human
Settings in all cases: 3 μM for 4 or 7 days
HFF cells = system: HFF cells
Description: (§1) Immunofluorescence and telomere FISH assay. Cells were fixed with 4% paraformaldehyde (PFA) for 15 minutes. Cells were then washed, permeabilized with 0.5% Triton-X-100 in PBS, blocked with 5% donkey serum and 0.3% Triton X-100 in TBS and incubated with primary antibodies against γH2A.X (1:500, rabbit), or cleaved caspase-3 (1:400, rabbit) (Cell Signaling); and/or TRF2 (1:200) (Mouse; NOVUS), as applicable, for overnight followed by TBST wash (×3) next day. Corresponding secondary antibodies were added (Alexa-Fluor 488- or 594-conjugated donkey anti-rabbit, or anti-mouse (1:500) (Jackson ImmunoResearch) for 1 hour and washed with TBS (×3) before mounting. For telomere-FISH, fixed and permeabilized cells were dehydrated with a graded ethanol concentration series, air-dried and covered with hybridization solution (70% formamide, 0.5% Blocking Reagent (Roche Diagnostics) diluted in 100 mM maleic acid and 150 mM sodium chloride, and 10 mM Tris (pH 7.5)) with 300 ng/mL PNA(CCCTAA)3-Cy3 (SEQ ID NO: 1) (Biosynthesis, USA), and denatured for 6 minutes at 84° C. followed by hybridization for at least two hours at room temperature. Cells were washed three times with 70% formamide and 10 mM Tris (pH 7.5) and three times with TBS. Finally, they were embedded with mounting media with DAPI (Vector Laboratories H1200).
(§2) Western blot. Western blot was performed as described previously (22). Antibodies used were against ATMS1981P (R & D Systems); ATM (SIGMA); ATR-T1989P (GeneTex); and ATR, CHK1-S345P, CHK1, CHK2-T68P, CHK2, Cleaved Caspase-3, and β-actin (Cell Signaling). Bands were visualized using ECL with Azurec500 imaging system (Azure Biosystems). Band intensities were quantified using ImageJ software (Ver. 1.49u, NIH, USA).

HFF+hTERT cells = system: HFF+hTERT cells
Description: as §1, §2

HeLa cells = system: HeLa cells
Description: as §1, §2

## Nc1nc2c(ncn2[C@H]2C[C@H](O)[C@@H](CO)O2)c(=S)[nH]1 [6-thio-dG, 6-thio-2′-deoxyguanosine]
HFF cells
  apoptosis (cleaved caspase-3): did not show any evidence of apoptosis
HFF+hTERT cells
  apoptosis (cleaved caspase-3): did not show any evidence of apoptosis
HeLa cells
  cleaved caspase-3 signal (apoptosis): increase in cleaved caspase-3 signal
